Source: patent US20110229411A1, “USE OF P2X7 PATHWAY FOR ASSESSING THE SENSITIVITY OF A SUBJECT TO A CANCER TREATMENT” (INSTITUT GUSTAVE ROUSSY, priority 2008, published 2011)

Legend:
MCA205 cells = assay: Cell death induction for vaccination, FACS analysis of Annexin V+ DAPI+ cells; format: cell-based, mouse; conditions: MCA205, 1 μM mitoxantrone, 24 hours
Procedure: Anti cancer vaccination was assessed using a previously described setting (Casares et al., 2005; Obeid et al., 2007). CT26 cells were cultured with either PBS or 20 μM doxorubicin, and MCA205 with either PBS or 1 μM mitoxantrone for 24 h. All these treatments led to ˜50% of Annexin V^+ DAPI^+ cells, as assessed by FACS analysis at 24 hours. After careful washes, cells were resuspended in sterile PBS. CT26 cells were incubated in the presence or in the absence of antimycin A and deoxyglucose (2 μg/ml and 30 mM, respectively) for 20 min, or in the presence or in the absence of Oxi-ATP ([…]). After 3 washes, 3×10^6 dying CT26 cells (or 3×10^5 MCA205 cells) were injected subcutaneously into the left flank of mice. In some experiments, 100 μg of IL-1Ra (Anakinra) was injected along with the dying cells. Seven days later, mice were rechallenged into the right flank with 5×10^5 live CT26 cells (or, alternatively, 3.10^4 live MCA205 cells). Tumor growth was then monitored weekly.

EG7 cells = assay: ATP assays (extracellular and intracellular ATP, luciferin-luciferase) on oxaliplatin-treated tumor cells; format: cell-based, mouse
Procedure: FIG. 1: ATP release by dying tumor cells dictates the immunogenicity of cell death. FIG. 1a. Accumulation of ATP in the extracellular space following exposure of tumor cells to chemotherapy. EG7 were treated with oxaliplatin, and ATP release into the supernatant was monitored. FIG. 1b. […] EG7 were treated with oxaliplatin for 24 hours and subsequently with antimycin A and deoxyglucose (A/D) for 20 min. Data (means±SEM of triplicates) of one representative experiment out of three are depicted. FIG. 1c. Failure of dying tumor cells depleted from ATP to elicit an OVA specific immune response. Live or oxaliplatin-treated EG7 cells were injected into the footpad of C57B1/6 mice. Five days later, popliteal lymph node cells were recovered and restimulated with the OVA holoprotein for 72 hours before quantification of IFNγ secretion. The levels of IFNγ secretion between mice immunized with ATP-depleted or not depleted EG7 were compared in three independent experiments. FIG. 1d. Inhibition of purinergic receptors with oxidized ATP (oxiATP) abolishes T cell priming by oxaliplatin-treated EG7 cells. […] Five days later, the local immune response was measured as in (a). […]
Plates were read in a Fluostar luminometer (BMG Labtech).

EL4 thymoma tumors = assay: Chemotherapy of EL4 tumors established in mice; format: in vivo
Procedure: FIG. 17. The anti-cancer activity of oxaliplatin depends on P2X7 and the NALP3 inflammasome. FIG. 17a,b,c. Therapeutic efficacy of oxaliplatin on established tumors depends on the integrity of the immune system on the P2X7/NALP3/casp-1 axis. EL4 thymoma tumors were established in syngenic mice bearing the indicated genotypes (a-c) or injected with anti-CD8 antibody (a). When the tumor reached 70-90mm^2 in size, mice were either left untreated or were treated with oxaliplatin. Each treatment group included 5-6 mice (X±SEM), and each experiment was repeated three times with similar results. * p<0.05. d. Caspase 1 is required for the immune response promoted by oxaliplatin chemotherapy. EG7 tumors established in the thigh were treated with one systemic injection of oxaliplatin. Inguinal lymph node cells were harvested 5 days later, and the gangliocytes were restimulated in vitro. IFNγ secretion was assessed by ELISA. Results (means of triplicates ±SEM, n=3) are representative of one typical experiment out of three. ^*P<0.01. FIG. 17d. The efficacy of anthracyclines against established colon cancer is dependent on IL-1β. CT26 tumors established for 10 days in WT mice were treated with one local injection of doxorubicin in the absence or presence of neutralizing anti-IL-1β Ab (n=10/group, *p<0.05). FIG. 17e. A single-nucleotide polymorphism (SNP) in P2X7 (rs3751143) affects the long-term efficacy of conventional anti-cancer therapy in breast cancer patients. Comparative Kaplan-Meier estimates of time to metastasis in two groups of patients bearing the normal (Glu496Glu) or loss-of-function (Glu496Ala) P2X7 alleles. The time to metastatic progression was analyzed in 225 women with non-metastatic breast cancer who received adjuvant chemotherapy with anthracylines.
Wild type or loss-of-function C57BL/6 mice were injected s.c. with 10^6 EL4 cells into the right flank. Alternatively, wild-type BALB/c mice were injected with 5.10^5 CT26 cells into the right flank. Mice were then randomly assigned to treatment groups of 4-6 mice each. The tumor surface was monitored using a caliper. When tumor size reached 70-90 mm^2 for EL4 (9-12 days post-injection) or 60-80 mm^2 for CT26 (8-10 days post-injection), mice received chemotherapy (Apetoh et al., 2007). Mice bearing EL4 tumors were injected with oxaliplatin (5 mg/kg i.p), while mice bearing CT26 tumors were injected with doxorubicin (50 μl, 4 mM i.t). In some experiments, CT26 tumor-bearing mice received two injections (on day 0 and day 2 after the commencement of chemotherapeutic treatment) of IL-1Ra (McIntyre et al., 1991) (100 μg), anti-IL-1 antibody (100 μg) or hamster serum as a control.

OT-1 CD8+ T cells = assay: In vitro stimulation of OT-1 cells by BM-DC loaded with oxaliplatin-treated EG7; format: cell-based, mouse; conditions: rIL-1β 100 ng/ml or IL-12 10 ng/ml added to cocultures
Procedure: FIG. 15. IL-1β-dependent CTL priming by dying tumor cells in vitro and in vivo. FIG. 15a. MyD88 is required at the level of the host but not that of the APC. DC from WT mice were first loaded with antigen (OVA holoprotein with C/P adjuvant, live or oxaliplatin-treated EG7 cells) and then injected into the footpad of into WT or MyD88^−/− recipients (n=6 mice/group). Five days later, the local immune response was measured as in FIG. 2d,e. Results of one typical experiment out of three are depicted. FIG. 15b. Casp-1 and IL-1β-dependent OT-I priming in vitro. The differentiation of IFNγ producing CD8^+ OT-1 cells was induced by incubating naïve OVA-specific TCR transgenic OT-1 lymphocytes with syngeneic BM-DC (derived from WT or Casp-1^−/− mice) that were loaded with oxaliplatin-treated EG7 for 2 days in vitro. […] Exogenous addition of rIL-1β (100 ng/ml) or IL-12 (10 ng/ml) to cocultures of Casp-1^−/− DC loaded with dying tumor cells and incubated with OT1 restored T cell priming. […] FIG. 15c. Specific and direct polarizing effects of IL-1β on T lymphocytes in vitro. Purified CD3^+ CD8^+ T cells derived from naïve WT mice were stimulated with anti-CD3 and anti-CD28 mAb for 5 days in the presence of the indicated cytokines (10 ng/ml for IL-12p70, 100 ng/ml for IL-1β, IL-6 and TNFα) -and IFNγ production was measured as in FIG. 3b. FIG. 15d. […]

[1] = test system: T cell priming for IFNγ production; assay: Priming assay: dying EG7 cells injected into the footpad, IFNγ secretion of restimulated popliteal lymph node cells; format: in vivo, mice; conditions: cytokine co-injected with oxaliplatin-treated EG7: rIL-1β 250 ng, rIL-12 50 ng, rIL-6 250 ng per footpad
Procedure: 1.10^6 CT26, EG7, or B16F10 cells were either left untreated or treated with doxorubicin (20 μM) or oxaliplatin (5 μg/ml) for 24 h. Cells were then injected into the footpad of syngenic mice. In some experiments, 20 or 100 μg of IL-1Ra (Anakinra) or 250 ng of recombinant murine IL-1β (or 250 ng of IL-6 or 50 ng of IL-12) was injected along with dying tumor cells into the footpad of mice. Alternatively, DC were cocultured with EG7 cells for 2 hours, followed by the purification of CD11c^+ cells with anti-CD11c mAb coupled to magnetic beads (Miltenyi Biotec, Paris, France) and injection of these purified DC into the footpad. Five days later, gangliocytes from popliteal lymph nodes were harvested, seeded in 96 U-well plates (3.10^5 cells per well), and restimulated with 1 mg/ml OVA protein. Restimulation with MCA205 or CT26 cells was performed using 3×10^4 tumor cells killed by 5 min heating at 42° C. followed by 1 cycle of freezing/thawing in liquid nitrogen. For B16F10, restimulation was achieved using gp100 peptide as previously described (Overwijk et al., 1998). As a positive control of T cell priming, mice were injected with OVA protein (1 mg) (or gp100 for B16F10) and the association of CpG (10 μg) and Poly I:C (5 μg). For CT26 priming experiments, cell lysate plus LPS (250 ng) was used as a positive control. Supernatants were harvested 72 hours later, and IFNγ secretion was assessed by ELISA. Alternatively, cells were stimulated with PMA (10 ng/ml) and ionomycin (1 μg/ml) for 1 h, followed by the addition of brefeldin A (10 μg/ml for 6 h at 37° C.) (Apetoh et al., 2007), surface staining with Abs specific for CD3, CD4 or CD8, fixation and permeabilization (Cytofix/cytoperm kit) and then labeled with antibodies specific for IFNγ. Immunofluorescence was analyzed on a LSRII flow cytometer (BD Biosciences) with FACSDiva software.

Question: How did the “Annexin V+ DAPI+ cells” value (MCA205 cells) turn out when O=C1c2c(O)ccc(O)c2C(=O)c2c(NCCNCCO)ccc(NCCNCCO)c21 [mitoxantrone] was run?
Answer: Its value is roughly 50%.

Question: O=C1[O][Pt]2([NH][C@@H]3CCCC[C@H]3[NH]2)[O]C1=O [oxaliplatin] was tested. Which “intracellular ATP” value (EG7 cells; EG7 treated with oxaliplatin for 24 hours) did it give?
Answer: The value was “Decrease of intracellular ATP”.

Question: And the “release of ATP into the supernatant” value (EG7 cells; EL4 thymomas and EG7 cells, oxaliplatin 5 μg/ml, 0-24 hours)?
Answer: The value was “induced the release of ATP”.

Question: What about the “response of EL4 tumors to oxaliplatin” value (EL4 thymoma tumors; Casp1−/− mice versus WT controls) of the same molecule?
Answer: Its value is “responded less efficiently”.

Question: What about the “therapeutic efficacy on established EL4 tumors” value (from here on “therapeutic efficacy”) (EL4 thymoma tumors; IfnγR1−/− mice) of the same molecule?
Answer: The value was “lost its therapeutic efficacy”.

Question: What about the “therapeutic efficacy” value (EL4 thymoma tumors; Il-12Rβ2−/− mice (and WT)) of the same molecule?
Answer: Its value is “remained efficient”.

Question: What about the “response of EL4 tumors to oxaliplatin” value (EL4 thymoma tumors; Nalp3−/− mice versus WT controls) of the same molecule?
Answer: Its value is “responded less efficiently”.

Question: What about the “response of EL4 tumors to oxaliplatin” value (EL4 thymoma tumors; P2X7−/− mice versus WT controls) of the same molecule?
Answer: Its value is “responded less efficiently”.

Question: And the “therapeutic efficacy” value (EL4 thymoma tumors; T and B cell-deficient rag-2−/− mice)?
Answer: Its value is “lost its therapeutic efficacy”.

Question: And the “therapeutic efficacy” value (EL4 thymoma tumors; T cell-deficient nu/nu mice)?
Answer: Its value is “lost its therapeutic efficacy”.

Question: And the “control of EL4 tumor growth” value (EL4 thymoma tumors; immunocompetent WT mice, oxaliplatin 5 mg/kg i.p.)?
Answer: The value was “efficient in controlling EL4 tumor growth”.

Question: What about the “therapeutic efficacy” value (EL4 thymoma tumors; mice depleted from CD8+ T cells) of the same molecule?
Answer: The value was “lost its therapeutic efficacy”.

B1: IL-12: recombinant mouse IL-12 from R&D Systems (protein, UniProt P43431 23-215; P43432 23-335, looked up)
Interleukin-12 subunit alpha: RVIPVSGPARCLSQSRNLLKTTDDMVKTAREKLKHYSCTAEDIDHEDITRDQTSTLKTCLPLELHKNESCLATRETSSTTRGSCLPPQKTSLMMTLCLGSIYEDLKMYQTEFQAINAALQNHNHQQIILDKGMLVAIDELMQSLNHNGETLRQKPPVGEADPYRVKMKLCILLHAFSTRVVTINRVMGYLSSA
Interleukin-12 subunit beta: MWELEKDVYVVEVDWTPDAPGETVNLTCDTPEEDDITWTSDQRHGVIGSGKTLTITVKEFLDAGQYTCHKGGETLSHSHLLLHKKENGIWSTEILKNFKNKTFLKCEAPNYSGRFTCSWLVQRNMDLKFNIKSSSSSPDSRAVTCGMASLSAEKVTLDQRDYEKYSVSCQEDVTCPTAEETLPIELALEARQQNKYENYSTSFFIRDIIKPDPPKNLQMKPLKNSQVEVSWEYPDSWSTPHSYFSLKFFVRIQRKKEKMKETEEGCNQKGAFLVEKTSTEVQCKGGNVCVQAQDRYYNSSCSKWACVPCRVRS
Question: With B1 as the molecule, how does the “priming capacity of Casp-1−/− DC for OT-1 cells (IFNγ)” value (OT-1 CD8+ T cells) read?
Answer: Its value is “restored the priming capacity”.

Question: What about the “T cell priming in Nalp3−/− or Casp1−/− mice” value [1] of the same molecule?
Answer: The value was “restored deficient T cell priming”.
